What was measured:
human D2R/β-arrestin [1] = biological target: T1, human D2R/β-arrestin (Homo sapiens (Human), UniProt P14416); assay: Gi/cAMP agonist assay (Lance Ultra cAMP, forskolin); type: cell-based; conditions: CHO-K1 cells expressing human D2R/β-arrestin; agonist mode, 2.5 μM forskolin
Experimental: Eu-cAMP tracer solution (10 μl, PerkinElmer, 360 μl of Tracer in 17.64 ml kit buffer) and ULight-anti-cAMP solution (10 μl, 120 μL antibody in 17.88 ml kit buffer) was then added to each well.

human D2R/β-arrestin [2] = biological target: T1, human D2R/β-arrestin; assay: β-arrestin agonist assay (PathHunter); type: cell-based; conditions: CHO-K1 cells expressing human D2R/β-arrestin; agonist mode
Experimental: The detection reagent (9.6 μL, Buffer:Emerald II:Galactor-Star in a 19:5:1 ratio, i.e., 14.06 mL:3.7 mL:0.74 mL=18.5 mL) was then added to the agonist plates.

human D2R/β-arrestin [3] = biological target: T1, human D2R/β-arrestin; assay: cell-based; conditions: β-arrestin Antagonist
human D2R/β-arrestin [4] = biological target: T1, human D2R/β-arrestin; assay: cell-based; conditions: cAMP Antagonist
[5] = CHO-K1 cells expressing human D2R/β-arrestin, antagonist mode, quinpirole 130 nM
[6] = CHO-K1 cells expressing human D2R/β-arrestin, antagonist mode, 2.5 μM forskolin and 2.7 nM quinpirole

T1 sequence (P14416 whole entry): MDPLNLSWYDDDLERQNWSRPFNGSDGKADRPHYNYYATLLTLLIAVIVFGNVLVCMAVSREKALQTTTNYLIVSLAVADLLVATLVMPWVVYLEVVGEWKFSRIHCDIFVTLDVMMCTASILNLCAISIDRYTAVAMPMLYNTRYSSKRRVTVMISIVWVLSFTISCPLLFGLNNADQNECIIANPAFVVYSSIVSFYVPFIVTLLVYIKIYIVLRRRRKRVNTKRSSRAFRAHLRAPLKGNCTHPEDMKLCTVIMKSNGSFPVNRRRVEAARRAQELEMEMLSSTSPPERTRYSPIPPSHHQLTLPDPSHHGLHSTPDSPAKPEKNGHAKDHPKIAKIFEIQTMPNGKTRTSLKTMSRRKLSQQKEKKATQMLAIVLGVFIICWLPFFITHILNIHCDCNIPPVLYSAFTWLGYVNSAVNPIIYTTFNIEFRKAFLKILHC

Structure (SMILES) | EC50 (human D2R/β-arrestin [1]) [nM] | EC50 (human D2R/β-arrestin [2]) [µM] | IC50 (human D2R/β-arrestin [3]; [5]) [µM] | IC50 (human D2R/β-arrestin [4]; [6]) [nM] | IC50 (human D2R/β-arrestin [3]) [µM] | IC50 (human D2R/β-arrestin [4]) [nM]
Clc1ccc(N2CCCC23CCN(CC2COc4ccccc4O2)CC3)cc1 (centres unmarked) [Compound 178, 1-(4-chlorophenyl)-8-((2,3-dihydrobenzo[b][1,4]dioxin-2-yl)methyl)-1,8-diazaspiro[4.5]decane] | > 30000 | > 30 | < 0.1 | < 100 |  | 
CC1(C(=O)Nc2ccccc2)CCN(CC2COc3ccccc3O2)CC1 (single isomer, unassigned) [Compound 204a, 1-((2,3-dihydrobenzo[b][1,4]dioxin-2-yl)methyl)-4-methyl-N-phenylpiperidine-4-carboxamide] | > 30000 | > 30 | 1 to 10 | 1000 to 10000 |  | 
CN(C1CCCCC1)C1(C)CCN(CCOc2ccccc2C(F)(F)F)CC1 [Compound 217, N-cyclohexyl-N,4-dimethyl-1-(2-(2-(trifluoromethyl)phenoxy)ethyl)piperidin-4-amine] | 100 to 1000 | > 30 |  |  | 1 to 10 | 1000 to 10000
COc1cc(F)c(F)cc1OCCN1CCC(C)(Oc2ccc(Cl)cc2)CC1 [Compound 189, 4-(4-chlorophenoxy)-1-(2-(4,5-difluoro-2-methoxyphenoxy)ethyl)-4-methylpiperidine] | 1000 to 10000 | > 30 | 1 to 10 | 1000 to 10000 |  | 
CC1(Oc2ccc(Cl)cc2)CCN(CCOc2ccncc2C(F)(F)F)CC1 [Compound 167, 4-(2-(4-(4-chlorophenoxy)-4-methylpiperidin-1-yl)ethoxy)-3-(trifluoromethyl)pyridine] | 1000 to 10000 | > 30 | 1 to 10 | 1000 to 10000 |  | 
CN(CCN1CCC(C)(Oc2ccc(Cl)cc2)CC1)c1ccccc1C(F)(F)F [Compound 169, N-(2-(4-(4-chlorophenoxy)-4-methylpiperidin-1-yl)ethyl)-N-methyl-2-(trifluoromethyl)aniline] | > 30000 | > 30 | 1 to 10 | 100 to 1000 |  | 
COc1ccc(F)cc1OCCN1CCC(C)(Oc2ccc(Cl)cc2)CC1 [Compound 159, 4-(4-chlorophenoxy)-1-(2-(5-fluoro-2-methoxyphenoxy)ethyl)-4-methylpiperidine] | < 100 | > 30 | 0.1 to 1 | 1000 to 10000 |  | 
COc1ccccc1OCCN1CCC(C)(O)CC1 [Compound 301, reference compound] | > 30000 | > 30 | 1 to 10 | 100 to 1000 |  | 
CC1(C(=O)Nc2ccccc2)CCN(CCOc2ccccc2F)CC1 [Compound 220, 1-(2-(2-fluorophenoxy)ethyl)-4-methyl-N-phenylpiperidine-4-carboxamide] | 100 to 1000 | > 30 | 0.1 to 1 | 100 to 1000 |  | 
CC1(C(=O)NC2CC2)CCN(CC2COc3ccccc3O2)CC1 (single isomer, unassigned) [Compound 203b, N-cyclopropyl-1-((2,3-dihydrobenzo[b][1,4]dioxin-2-yl)methyl)-4-methylpiperidine-4-carboxamide] | > 30000 | > 30 | 10 to 30 | 10000 to 30000 |  | 
FC(F)(F)c1ccccc1OCCN1CCC2(CC1)CCN2c1ccc(Cl)cc1 [Compound 136, 1-(4-Chlorophenyl)-7-(2-(2-(trifluoromethyl)phenoxy)ethyl)-1,7-diazaspiro[3.5]nonane] | > 30000 | > 30 | 0.1 to 1 | < 100 |  | 
CC1(Oc2ccc(Cl)cc2)CCN(CCOc2ccc3c(c2)NC(=O)CC3)CC1 [Compound 166, 7-(2-(4-(4-chlorophenoxy)-4-methylpiperidin-1-yl)ethoxy)-3,4-dihydroquinolin-2(1H)-one] | 1000 to 10000 | > 30 | 1 to 10 | 1000 to 10000 |  | 
CC1(Oc2ccc(Cl)cc2)CCN(CCOc2ccc(F)cc2S(C)(=O)=O)CC1 [Compound 158, 4-(4-chlorophenoxy)-1-(2-(4-fluoro-2-(methylsulfonyl)phenoxy)ethyl)-4-methylpiperidine] | 100 to 1000 | > 30 | 1 to 10 | 100 to 1000 |  | 
CC1(O)CCN(CCOc2ccc(C(F)(F)F)cc2)CC1 [Compound 132, 4-methyl-1-(2-(4-(trifluoromethyl)phenoxy)ethyl)piperidin-4-ol] | > 30000 | > 30 | 10 to 30 | 1000 to 10000 |  | 
CC(C)C1(Oc2ccc(Cl)cc2)CCN(CCOc2ccccc2C(F)(F)F)CC1 [Compound 192, 4-(4-chlorophenoxy)-4-isopropyl-1-(2-(2-(trifluoromethyl)phenoxy)ethyl)piperidine] | 1000 to 10000 | > 30 | 1 to 10 | 100 to 1000 |  | 
COc1cc2c(cc1O)C1Cc3ccc(O)c(OC)c3CN1CC2 (racemic) [D,L-Stepholidine, reference compound] | > 30000 | > 30 | < 0.1 | < 100 |  | 
C[C@@]1(O)C[C@H]2CC[C@@H](C1)N2CCOc1ccccc1C(F)(F)F [Compound 196, (1R,3s,5S)-3-methyl-8-(2-(2-(trifluoromethyl)phenoxy)ethyl)-8-azabicyclo[3.2.1]octan-3-ol] | > 30000 | > 30 | 10 to 30 | 1000 to 10000 |  | 
C[C@]1(O)C[C@H]2CC[C@@H](C1)N2CCOc1ccccc1C(F)(F)F [Compound 133, 3-methyl-8-(2-(2-(trifluoromethyl)phenoxy)ethyl)-8-azabicyclo[3.2.1] octan-3-ol] | > 30000 | > 30 | 0.1 to 1 | 100 to 1000 |  | 
CC1(Oc2ccc(Cl)cc2)CCN(CCOC2CCCCC2)CC1 [Compound 143, 4-(4-chlorophenoxy)-1-(2-(cyclohexyloxy)ethyl)-4-methylpiperidine] | 10000 to 30000 | > 30 | 10 to 30 | > 30000 |  | 

Now from value to compound, other results behind:

EC50 (human D2R/β-arrestin [1]) [nM] | EC50 (human D2R/β-arrestin [2]) [µM] | IC50 (human D2R/β-arrestin [3]; [5]) [µM] | IC50 (human D2R/β-arrestin [4]; [6]) [nM] | Structure (SMILES) | IC50 (human D2R/β-arrestin [3]) [µM] | IC50 (human D2R/β-arrestin [4]) [nM]
100 to 1000 | > 30 | 1 to 10 | 100 to 1000 | OC1(c2ccccc2)CCN(CCOc2ccccc2)C1 (centres unmarked) [Example 93, 1-(2-Phenoxyethyl)-3-phenylpyrrolidin-3-ol] |  | 
100 to 1000 | > 30 | 0.1 to 1 | 1000 to 10000 | COc1ccccc1OCCN1CCC(C)(Oc2ccc(Cl)cc2)CC1 [Compound 188, 4-(4-chlorophenoxy)-1-(2-(2-methoxyphenoxy)ethyl)-4-methylpiperidine] |  | 
100 to 1000 | > 30 | 1 to 10 | > 30000 | Cc1ccc(OCCN2CCC(C)(Oc3ccc(Cl)cc3)C2)cc1 (centres unmarked) [Compound 16, 3-(4-Chlorophenoxy)-3-methyl-1-(2-(p-tolyloxy)ethyl)pyrrolidine] |  | 
< 100 | < 0.1 | > 30 | > 30000 | CC1(Oc2ccc(Cl)cc2)CCN(CCOc2cccnc2)C1 (centres unmarked) [Compound 12, 3-(2-(3-(4-chlorophenoxy)-3-methylpyrrolidin-1-yl)ethoxy)pyridine] |  | 
< 100 | > 30 | 1 to 10 | 100 to 1000 | CC1(Oc2ccc(Cl)cc2)CCN(CCOc2ccc(F)cc2)C1 (centres unmarked) [Compound 14, 3-(4-chlorophenoxy)-1-(2-(4-fluorophenoxy)ethyl)-3-methylpyrrolidine] |  | 
< 100 | > 30 | 1 to 10 | 100 to 1000 | CC1(Oc2ccc(Cl)cc2)CCN(CCOc2ccc(F)cc2F)C1 (centres unmarked) [Compound 22, 3-(4-chlorophenoxy)-1-(2-(2,4-difluorophenoxy)ethyl)-3-methyl pyrrolidine] |  | 
1000 to 10000 | > 30 | 10 to 30 | > 30000 | CC1(Oc2ccc(Cl)cc2)CCN(CCCCOc2ccccc2)CC1 [Compound 120, 4-(4-chlorophenoxy)-4-methyl-1-(4-phenoxybutyl)piperidine] |  | 
100 to 1000 | > 30 | 1 to 10 | 100 to 1000 | CC1(Oc2ccc(Cl)cc2)CCN(CCOc2cccc3ccccc23)C1 (centres unmarked) [Compound 36, 3-(4-chlorophenoxy)-3-methyl-1-(2-(naphthalen-1-yloxy)ethyl) pyrrolidine] |  | 
100 to 1000 | > 30 | 10 to 30 | > 30000 | CC1(Oc2cccc(N)c2)CCN(CCOc2ccccc2)C1 (centres unmarked) [Example 41, 3-((3-methyl-1-(2-phenoxyethyl)pyrrolidin-3-yl)oxy)aniline] |  | 
< 100 | 0.1 to 1 | > 30 | > 30000 | CC1(Oc2cnccn2)CCN(CCOc2ccccc2)C1 (centres unmarked) [Example 60, 2-((3-methyl-1-(2-phenoxyethyl)pyrrolidin-3-yl)oxy)pyrazine] |  | 
> 30000 | > 30 | 1 to 10 | < 100 | c1ccc(OCCN2CCC3(Cc4ccccc4O3)C2)cc1 (centres unmarked) [Compound 181, 1′-(2-phenoxyethyl)-3H-spiro[benzofuran-2,3′-pyrrolidine]] |  | 
100 to 1000 | > 30 | 1 to 10 | > 30000 | CNC(=O)C1(C)CCN(CCOc2ccccc2)CC1 [Compound 199, N, 4-dimethyl-1-(2-phenoxyethyl)piperidine-4-carboxamide] |  | 
< 100 | > 30 | 1 to 10 | > 30000 | CC1(Oc2cccc(Cl)c2)CCN(CCOc2ccccc2)C1 (centres unmarked) [Example 42, 3-(3-chlorophenoxy)-3-methyl-1-(2-phenoxyethyl)pyrrolidine] |  | 
